Consider four compounds from article PMC8398714, “Synthesis and Evaluation of Biological Activities of Bis(spiropyrazolone)cyclopropanes: A Potential Application against Leishmaniasis” (Molecules, 2021).

The structures appear in SMILES notation. Read-outs that look alike come from different tables or passages of the source. Bounds are passed on as bounds.

The inhibition is the relative decrease from the control value, in per cent. By IC50 is commonly meant the concentration needed to halve the response being measured. A word on the CC50: it is the concentration that lowers cell viability or growth by half. What is called melting point is the temperature of the solid-liquid transition.

The subject of series [1] is RKO. Briefly: MTS cell viability assay on RKO cells. The class given is cell-based. The following applies: Homo sapiens, 48 h; for inhibition at 100 µM: Dox 1 µM, mean ± SEM, NA = no activity, read-out: Percentage (%) of inhibition, RKO; for IC50: 15-150 µM, mean ± SEM of triplicates. For orientation: Tetrazolium dyes change colour on reduction, which living cells bring about.

Series [2] relates to A-549. Briefly: MTS cell viability assay on A-549 cells. The following applies: Homo sapiens, A549; 100 µM, 48 h; Dox 1 µM; mean ± SEM; NA = no activity; read-out: Percentage (%) of inhibition, A-549. It counts as cell-based.
The subject of series [3] is MCF-7. Briefly: MTS cell viability assay on MCF-7 cells. The conditions noted are these: Homo sapiens, MCF7, 48 h, Dox 1 µM, mean ± SEM, NA = no activity, read-out: Percentage (%) of inhibition, MCF-7. The class given is cell-based.
In series [4] the test system is CHO-K1. Briefly: MTS cell viability assay on immortalized CHO-K1 cells. The class given is cell-based, hamster. The following applies: 48 h, Dox 1 µM, mean ± SEM, NA = no activity, read-out: Percentage (%) of inhibition, CHO-K1.
Series [5] in a line: Cytotoxicity, MTT assay on RAW 264.7 macrophages. The following applies: mouse. The class given is cell-based. The protocol: Raw 264.7 (ATCC® TIB-71™) was maintained in Dulbecco’s Modified Eagle Medium (DMEM) (Gibco, Invitrogen, Gibco, Carlsbad, CA, USA) supplemented with 10% fetal bovine serum (FBS) (Eurobio, Les Ulis, France) and 100 IU/mL penicillin + 100 μg/mL streptomycin (Gibco), at 37 °C in a 5% CO2 atmosphere. The medium was renewed once a week. The viability was determined using MTT (Thiazolyl Blue Tetrazolium Bromide) dye assay as described before for leishmanicidal activity assessment, with some variations. Here, 5 × 10^4 cells/well in a final volume of 100 µL were deposited into a 96-well plate, in triplicate. Saponin (2.4 mg/mL) and untreated cells were used as positive control and negative control, respectively. A stock solution was prepared in DMSO and immediately diluted in media to obtain different serial concentrations (100–0.01 µM). After 48 h exposure to the compounds, 10 µL/well of MTT (5 mg/mL MTT in PBS) were added, and the plate was incubated at 37 °C for 2 h in the dark. Cells were pelleted by centrifugation at 4400 rpm for 10 min and the media was removed. Then, 100 µL/well of DMSO were added and the absorbance at 570 nm was recorded; a reference wavelength of 630 nm was used for background subtraction.

Series [6] is described as follows: DPPH radical scavenging assay. The following applies: 30 min, 515 nm. How it is done: The stock solution of the compounds was prepared by dissolving 4 in dimethyl sulfoxide (DMSO) to a concentration of 4 mg/mL. The solution was diluted with methanol until a concentration of 400 µg/mL was obtained and then used immediately.
The experimental procedure was adapted from the literature. Briefly, 100 µL of a 0.2 mM methanol solution of DPPH (2, 2-diphenyl-1-picrylhydrazyl) radical were added to 100 µL of methanolic solutions of 4 prepared as serial two-fold dilutions from the stock solution in 96-well microfilter plates. Standards and edaravone were also prepared in the same concentrations. The mixture was incubated in dark at room temperature for 30 min and the absorbance was read at 515 nm on a Cytation 5 (BioTek) spectrophotometer.
The % DPPH scavenging activity was then calculated by using the following formula:(1) % DPPH scavenging = 100 × [(Asample+DPPH−Asample blank)/(ADPPH−Asolvent)]
The antioxidant activity of the compound was expressed as IC50, which is defined as the concentration that could scavenge 50% of the DPPH free radical. The IC50 values were calculated in GraphPad Prism 7.02 (GraphPad Software, Corp.) The results are given as a mean ± standard deviation (SD) of experiments done in triplicate.

Series [7] has as its system CHO-K1 cells. The class given is cell-based, hamster. How it is done:
Cells were mixed with 150 μL low-melting-point agarose 1% (LMP, Promega, Madison, WI, USA) and added to microscope slides previously prepared with normal-melting-point agarose 1% (NMP, Invitrogen, Carlsbad, CA, USA). A third LMP agarose layer (150 µL) was added. The slides were immersed in a cooled lysing solution (pH 10) with 10% DMSO, 1% Triton X-100 (Sigma Aldrich, Saint Louis, MO, USA), 2.5 M NaCl (Loba Chemie, Mumbai, India), 100 mM EDTA and 10 mM Tris (Invitrogen, Carlsbad, CA, USA) for 12 h at 4 °C. All steps after lysis were performed under darkness or yellow light to prevent additional DNA damage. The slides were immersed for 20 min in an electrophoresis buffer solution (pH 13) with NaOH 300 mM (Fisher Scientific, Waltham, MA, USA) and EDTA 1 mM (Invitrogen, Carlsbad, CA, USA) to allow for DNA unwinding. Electrophoresis was later performed at 25 V and 300 mA for 20 min. Slides were then sprayed with a neutralization buffer (pH 7.5) 0.4 M Tris (Sigma Aldrich, Saint Louis, MO, USA). Ethidium bromide (60 µL) was added to each slide, and a cover glass was placed on the gel. The DNA migration was analyzed using a ZEISS-Axioskop 2 plus microscope with fluorescence (40×) by scoring 100 cells per slide in duplicate. After that, the tail moment parameter was analyzed by a Comet Assay IV software (Perceptive Instruments Ltd., Bury St Edmunds, Suffolk, UK).

The mark [8] stands for this setting: RAW cells, 48 h, MTT, read-out: Cytotoxicity CC50.
[9] abbreviates: Statistical Analyses S1, unrounded mean of CC50 in RAW cells, unit inferred, read-out: CC50 original values, x.1 (Mean).

For the compound `CC1=NN(c2ccccc2)C(=O)[C@@]12C(c1cccc([N+](=O)[O-])c1)[C@@]21C(=O)N(c2ccccc2)N=C1C` (relative stereo) [4d, (5R*,6R*)-11-(3-Nitrophenyl)-4,10-dimethyl-2,8-diphenyl-2,3,8,9-tetraazadispiro[4.0.4.1]undeca-3,9-diene-1,7-dione], the melting point is 183.9 to 185 °C. In series [1], the inhibition at 100 µM was determined as 68.9 ± 1.72% and half-maximal inhibition (IC50) required 94 ± 4.09 µM. The inhibition at 100 µM in series [2] is 13.6 ± 0.74%. Besides, the inhibition at 100 µM in series [3] was found to be 39.4 ± 2.29%. For the same compound, the inhibition at 100 µM in series [4] stood at 4.4 ± 0.72%. The CC50 at 48 h in series [5] (setting [8]) turned out to be 3.9 ± 1.1 µM. Further, the CC50 at 48 h in series [5] (setting [9]) was determined as 3.92 µM. In series [6], this compound registered a concentration for half-maximal inhibition (IC50) above 300 µM. Moreover, the “Genotoxic effect in comet assay versus DMSO control” value in series [7] is listed as “most significant”.

On to `COC(=O)c1ccc(C2[C@@]3(C(=O)N(c4ccccc4)N=C3C)[C@]23C(=O)N(c2ccccc2)N=C3C)cc1` (relative stereo) [4q, (5R*,6R*)-Methyl-4[4,10-dimethyl-2,8-diphenyl-2,3,8,9-tetraazadispiro[4.0.4.1]undeca-3,9-diene-1,7-dione-11-yl]benzoate], for which the melting point is 162.5 to 163.9 °C. In series [1], the inhibition at 100 µM was found to be 62.9 ± 1.53% and the IC50 is 102 ± 7.8 µM. The inhibition at 100 µM in series [2] is 13 ± 1.99%. Moreover, in series [3], the inhibition at 100 µM was determined as 32.5 ± 2.33%. In series [4], the inhibition at 100 µM was 2.29 ± 2.6%. Also, the CC50 at 48 h in series [5] (setting [8]) was 4 ± 0.8 µM. In addition, the CC50 at 48 h in series [5] (setting [9]) was found to be 4.01 µM. In series [6], this compound had an IC50 above 300 µM. In addition, the “Genotoxic effect in comet assay versus DMSO control” value in series [7] is listed as “did not show differences with respect to the control of DMSO”.

`CC1=NN(c2ccccc2)C(=O)[C@@]12C(c1cccc(F)c1)[C@@]21C(=O)N(c2ccccc2)N=C1C` (relative stereo) [4t, (5R*,6R*)-11-(3-Fluorophenyl)-4,10-dimethyl-2,8-diphenyl-2,3,8,9-tetraazadispiro[4.0.4.1]undeca-3,9-diene-1,7-dione] returned a melting point of 152.1 to 153 °C. Moreover, in series [1], the inhibition at 100 µM turned out to be 47.6 ± 0.95%. Besides, the inhibition at 100 µM in series [2] worked out at 3.43 ± 2.42%. Further, in series [3], the inhibition at 100 µM came out at 31.4 ± 3.65%. In addition, the inhibition at 100 µM in series [4] was determined as 5.08 ± 2.84%. Besides, the CC50 at 48 h in series [5] (setting [8]) was 2.7 ± 0.7 µM. Further, the CC50 at 48 h in series [5] (setting [9]) is 2.75 µM. In series [6], this compound gave an IC50 above 300 µM. In addition, the “Genotoxic effect in comet assay versus DMSO control” value in series [7] is on record as “did not show differences with respect to the control of DMSO”.

Turning to `CSc1ccc(C2[C@]3(C(=O)N(c4ccccc4)N=C3C)[C@@]23C(=O)N(c2ccccc2)N=C3C)cc1` (relative stereo) [4u, (5R*,6R*)-11-(4-Thiomethylphenyl)-4,10-dimethyl-2,8-diphenyl-2,3,8,9-tetraazadispiro[4.0.4.1]undeca-3,9-diene-1,7-dione], the melting point is 154.4 to 157.3 °C. Moreover, the inhibition at 100 µM in series [1] is 41 ± 1.49%. The inhibition at 100 µM in series [2] amounted to 3.64 ± 1.81%. The inhibition at 100 µM in series [3] was found to be 19.5 ± 2.96%. For the same compound, in series [4], the inhibition at 100 µM came to 5.76 ± 3.65%. Moreover, the CC50 at 48 h in series [5] (setting [8]) stood at 9.3 ± 3.4 µM. The CC50 at 48 h in series [5] (setting [9]) is 9.3 µM. In addition, in series [6], the IC50 is above 300 µM. The “Genotoxic effect in comet assay versus DMSO control” value in series [7] is on record as “did not show differences with respect to the control of DMSO”.
